According to patent publication US20130149721A1, “Methods for Inhibiting Amyloid Precursor Protein and Beta-Amyloid Production and Accumulation” (WISCONSIN ALUMNI RESEARCH FOUNDATION, priority 2008, published 2013):

Key:
APP translation in SN = assay: 35S-Met labeling and immunoprecipitation of newly synthesized APP in synaptoneurosomes; type: cell-based, mouse; details: WT SN
Description: WT and KO SNs (450 μl) were mixed with 25 μl Redivue Pro-Mix-L [^35S] for 5 min prior to stimulation with 25 μl 2 mM DHPG. Samples were flash frozen at the indicated times. To analyze new protein synthesis, SN lysates were cleared of free isotope, Percoll®, and sucrose by purification with the PAGEprep Advance kit according to the manufacturer's directions. Protein concentrations were determined by the BCA assay, and 15 μg protein was denatured and loaded per lane on 12% SDS gels for content analysis. Gels were dried and exposed to a phosphorimager screen to identify the results of these assays.
To specifically analyze APP synthesis, WT and KO SN lysates (500 μl) were immunoprecipitated with APP antibody. Briefly, SN lysates were precleared with protein A magnetic beads in 1 ml volumes containing 500 μl SNs, 500 μl 2×IP buffer (20 mM HEPES (pH 7.4), 400 mM NaCl, 60 mM EDTA (pH 8), and 2% Triton X-100), protease inhibitor cocktail, and 100 μl packed fresh protein A magnetic beads. For the immunoprecipitations, 10 μg anti-APP antibody (Zymed catalog number 51-2700) and fresh protein A magnetic beads were added and mixed overnight at 4° C. The beads were washed three times with IP buffer, and the final, washed pellets were suspended in 40 μl 2×SDS sample buffer and boiled for 5 min; the proteins were then separated on 12% SDS gels. The gels were transferred to a nitrocelluose membrane, dried, exposed to a phosphorimager screen, and scanned on a STORM 860 phosphorimager (Molecular Dynamics http://www6.amershambiosciences.com). APP bands at 120 kDa were quantitated with ImageQuant software (GE Healthcare Life Sciences, http://www4.amershambiosciences.com).
For mGluR5 inhibitor studies, SNs (425 μl) were preincubated with 25 μl anisomycin (40 μM final concentration) or MPEP (10 μM final concentration) for 10 min prior to the addition of 25 μl ^35S-Met for 5 min and stimulation with DHPG (100 μM final concentration) for 15 min. Samples were processed as described in the preceding paragraph.
To further assess FMRP regulation of APP levels in brain, cortical SN were prepared from WT mice and overall protein synthesis analyzed in response to DHPG (100 μM)-induced mGluR5 activation. SN were metabolically active as assessed by ^35S-Met incorporation. […]
These conclusions were tested by assessing the effects on APP translation of contacting SN with a group 1 mGluR5 antagonist, 2-methyl-6-(phenylethynyl)-pyridine (MPEP). […] To assess the effect of MPEP, a specific mGluR5 antagonist, on DHPG stimulation of de novo APP synthesis, SN were pre-treated with 10 μM MPEP for 10 min prior to the addition of ^35S-Met for 5 min and stimulation with 100 μM DHPG for 15 min. ^35S-Met-labeled APP was immunoprecipitated with anti-APP antibodies and analyzed by SDS-PAGE. […]

[1] = test system: audiogenic seizures in Fmr-1 KO mice; details: intraperitoneal injections; cited from earlier work
[2] = test system: dendritic APP in primary neuronal cells; assay: Immunofluorescence confocal quantitation of dendritic APP in primary cortical neurons; type: cell-based, mouse
Description: Pregnant female mice at embryonic day 18 (E18) were anesthetized with halothane prior to decapitation and transfer of the uterine sac to ice-cold HBSS. […] Cells were counted by trypan blue dye exclusion and plated at 1.25×10^5 cells/ml on poly(D)-lysine-coated glass coverslips in 12-well tissue-culture dishes and cultured for 11 d at 37° C./5% CO2. Half of the culture medium was removed and replaced with fresh, warm medium on day 4. […] All washes and antibody dilutions were in PBS containing 2% FBS. […] Images were acquired with a Nikon C1 laser-scanning confocal microscope with EZ-C1 v2.20 software (Nikon, http://www.nikon.com) at 60× magnification. APP levels in the puncta of four to seven dendrites per sample were quantitated with IMAGE J software using the Analyze Particles function (minimum of 205 puncta analyzed per treatment) (Rasband, Image J, U.S. National Institutes of Health, http://rsb.info.nih.gov/ij; 1997-2006). Figures were assembled with Adobe Photoshop 8.0 (Adobe Systems, http://www.adobe.com). […] It was recognized that SN are a relatively crude preparation of pre- and post-synaptic dendrites that are contaminated with other cell types, such as astrocytes, which form synapses with neurons. Thus, primary E18 cortical neuron cultures were prepared from WT and Fmr-1 KO brains and dendritic APP levels assessed using an immunofluorescence assay. There was a 21% increase in the basal level of APP in untreated dendrites from Fmr-1 KO neurons compared to WT (FIG. 5B). […] Staining of dendritic puncta was analyzed by confocal microscopy and quantitated with Image J software using the Analyze Particles function (a minimum of 475 particles were analyzed per treatment) (Rasband, W. S., Image J, U.S. National Institutes of Health, http://rsb.info.nih.gov/ij; 1997-2006). Duplicate slides were stained for each treatment and the number and intensity of dendritic puncta from three areas of each slide were analyzed and averaged. All MPEP-treated samples were statistically different from untreated controls by t-test analyses (p<0.005) and expressed as standard error of the mean (SEM).

[3] = test system: anxiety phenotype in Fmr-1 KO mice; details: intraperitoneal injections; cited from earlier work
[4] = WT primary neuronal cells, 10 μM MPEP

Cc1cccc(C#Cc2ccccc2)n1 [MPEP, 2-methyl-6-(phenylethynyl)pyridine]
effect on DHPG-mediated synthesis of APP (APP translation in SN; 10 μM MPEP pre-treatment 10 min, 100 μM DHPG 15 min): blocked
effect on audiogenic seizures [1]: reduce
decrease in dendritic APP (average particle intensity) ([2]; WT C57BL/6 primary neuronal cells, 10 μM MPEP, 15 min): 37%
decrease in area of each particle [2, 4]: 22%
increase in number of particles in a defined area [2, 4]: 29%
decrease in dendritic APP at later times ([2]; WT primary neuronal cells, 10 μM MPEP, 4 hr and 1 day): persisted
effect on anxiety phenotype [3]: reduce

N[C@@H](C(=O)O)c1cc(O)cc(O)c1 (racemic) [DHPG, (R,S)-3,5-dihydroxyphenylglycine]
increase in APP translation (APP translation in SN; 100 μM DHPG, 15 min): 2.7 fold
increase in APP translation over control (APP translation in SN; 100 μM DHPG, 1 hr): 1.6 fold
increase in dendritic APP levels ([2]; Fmr-1 KO cultures, DHPG 10 and 20 min): no increase
increase in dendritic APP levels ([2]; WT neurons, 100 μM DHPG, 10 and 20 min): 18-25%
